# Legend:
# [1] = biological target: FGFR1 (h) (Homo sapiens, UniProt P11362); assay: FGFR1 (enzymatic assay), TR-FRET; assay type: biochemical; conditions: read-out: FGFR 1 pIC50 (converted)
# [2] = biological target: T1, Ba/F3-FGFR3-transfected cells (Homo sapiens, UniProt P22607); assay: Ba/F3-FGFR3 (minus IL3) cellular proliferation assay, Alamar Blue; assay type: cell-based
# T1 construct: BAF3-FGFR3 (MIN IL3) pIC50; other: minus IL3
# Summary of the method: (§1)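 Compound dilutions were dispensed first, then 20000 FGFR3-transfected Ba/F3 cells per well in serum-containing RPMI-1640 were added. After 24 h incubation at 37° C, Alamar Blue was applied for 4 h before relative fluorescence units were recorded. In the minus-IL3 format cells grow without cytokine; the other format contains 10 ng/ml murine IL3.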
# [3] = biological target: KDR (h) (Homo sapiens, UniProt P35968); assay: KDR (VEGFR2) (enzymatic assay), TR-FRET; assay type: biochemical; conditions: read-out: VEGFR 2 (KDR) pIC50 (converted)
# KDR (h), sequence (P35968 20-1356): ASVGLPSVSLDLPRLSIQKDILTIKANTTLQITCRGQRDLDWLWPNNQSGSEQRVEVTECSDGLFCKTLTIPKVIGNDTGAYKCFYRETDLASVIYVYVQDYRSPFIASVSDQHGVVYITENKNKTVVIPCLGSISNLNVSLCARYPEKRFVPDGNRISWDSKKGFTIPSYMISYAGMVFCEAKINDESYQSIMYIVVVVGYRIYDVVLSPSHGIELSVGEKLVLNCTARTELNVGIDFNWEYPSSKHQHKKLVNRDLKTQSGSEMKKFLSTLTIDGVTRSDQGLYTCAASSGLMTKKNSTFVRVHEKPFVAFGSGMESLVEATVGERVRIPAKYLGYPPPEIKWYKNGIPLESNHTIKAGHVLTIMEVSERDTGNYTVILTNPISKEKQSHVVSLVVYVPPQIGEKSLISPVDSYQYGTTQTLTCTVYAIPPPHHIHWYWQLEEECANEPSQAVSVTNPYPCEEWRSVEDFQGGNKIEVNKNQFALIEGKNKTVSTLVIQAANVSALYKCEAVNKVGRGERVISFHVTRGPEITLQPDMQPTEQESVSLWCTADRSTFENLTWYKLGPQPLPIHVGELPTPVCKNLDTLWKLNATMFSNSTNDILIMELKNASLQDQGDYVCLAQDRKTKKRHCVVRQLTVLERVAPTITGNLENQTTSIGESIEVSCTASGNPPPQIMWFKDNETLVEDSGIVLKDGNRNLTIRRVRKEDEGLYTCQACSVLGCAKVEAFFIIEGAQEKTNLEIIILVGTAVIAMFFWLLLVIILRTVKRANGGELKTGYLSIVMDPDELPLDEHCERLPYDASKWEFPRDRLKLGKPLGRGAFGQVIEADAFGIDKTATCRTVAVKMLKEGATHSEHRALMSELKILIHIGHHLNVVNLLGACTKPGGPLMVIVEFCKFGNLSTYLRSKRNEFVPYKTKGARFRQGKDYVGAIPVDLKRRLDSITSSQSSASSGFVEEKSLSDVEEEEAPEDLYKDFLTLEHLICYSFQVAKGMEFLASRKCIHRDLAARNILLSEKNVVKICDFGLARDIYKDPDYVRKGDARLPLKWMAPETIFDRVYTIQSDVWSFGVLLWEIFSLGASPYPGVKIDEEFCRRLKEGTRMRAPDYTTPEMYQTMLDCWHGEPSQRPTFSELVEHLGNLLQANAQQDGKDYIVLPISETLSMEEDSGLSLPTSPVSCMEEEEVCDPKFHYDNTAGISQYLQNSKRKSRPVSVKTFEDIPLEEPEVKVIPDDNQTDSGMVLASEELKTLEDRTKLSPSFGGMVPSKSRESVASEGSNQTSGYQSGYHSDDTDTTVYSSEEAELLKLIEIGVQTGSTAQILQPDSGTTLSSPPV
# Summary of the method: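 Enzyme at 150 ng/ml was incubated 120 min at room temperature with 500 nM Btn-Flt3 peptide and 3 μM ATP in 50 mM HEPES pH 7.5, 6 mM MnCl2, 1 mM DTT, 0.1 mM Na3VO4, 0.01% Triton-X-100, 1% DMSO final. EDTA stop with Eu-anti-P-Tyr/SA-XL-665, 60 min; TR-FRET read in RFU.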
# [4] = test system: Ba/F3-FGFR1-transfected cells; assay: Ba/F3-FGFR1 (plus IL3) cellular proliferation assay, counterscreen with 10 ng/ml murine IL3; assay type: cell-based; conditions: plus IL3 (10 ng/ml murine IL3, counterscreen); read-out: BAF3-FGFR1 (PLUS IL3) pIC50 (converted)
# Summary of the method: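 Ba/F3-FGFR1 cells (20000/well) in RPMI-1640 with 10% FBS exposed to compound for 24 h at 37° C., 5% CO2, then Alamar Blue (resazurin) added for 4 h; fluorescence read at ex 540/em 590 nm. Counterscreen run identically with 10 ng/ml murine IL3.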
# [5] = biological target: T2, Ba/F3-KDR-transfected cells (Homo sapiens, UniProt P35968); assay: Ba/F3-KDR (minus IL3) cellular proliferation assay, Alamar Blue; assay type: cell-based
# T2 construct: BAF3-KDR (MIN IL3) pIC50; other: minus IL3
# T2 sequence (P35968 whole entry, change not shown): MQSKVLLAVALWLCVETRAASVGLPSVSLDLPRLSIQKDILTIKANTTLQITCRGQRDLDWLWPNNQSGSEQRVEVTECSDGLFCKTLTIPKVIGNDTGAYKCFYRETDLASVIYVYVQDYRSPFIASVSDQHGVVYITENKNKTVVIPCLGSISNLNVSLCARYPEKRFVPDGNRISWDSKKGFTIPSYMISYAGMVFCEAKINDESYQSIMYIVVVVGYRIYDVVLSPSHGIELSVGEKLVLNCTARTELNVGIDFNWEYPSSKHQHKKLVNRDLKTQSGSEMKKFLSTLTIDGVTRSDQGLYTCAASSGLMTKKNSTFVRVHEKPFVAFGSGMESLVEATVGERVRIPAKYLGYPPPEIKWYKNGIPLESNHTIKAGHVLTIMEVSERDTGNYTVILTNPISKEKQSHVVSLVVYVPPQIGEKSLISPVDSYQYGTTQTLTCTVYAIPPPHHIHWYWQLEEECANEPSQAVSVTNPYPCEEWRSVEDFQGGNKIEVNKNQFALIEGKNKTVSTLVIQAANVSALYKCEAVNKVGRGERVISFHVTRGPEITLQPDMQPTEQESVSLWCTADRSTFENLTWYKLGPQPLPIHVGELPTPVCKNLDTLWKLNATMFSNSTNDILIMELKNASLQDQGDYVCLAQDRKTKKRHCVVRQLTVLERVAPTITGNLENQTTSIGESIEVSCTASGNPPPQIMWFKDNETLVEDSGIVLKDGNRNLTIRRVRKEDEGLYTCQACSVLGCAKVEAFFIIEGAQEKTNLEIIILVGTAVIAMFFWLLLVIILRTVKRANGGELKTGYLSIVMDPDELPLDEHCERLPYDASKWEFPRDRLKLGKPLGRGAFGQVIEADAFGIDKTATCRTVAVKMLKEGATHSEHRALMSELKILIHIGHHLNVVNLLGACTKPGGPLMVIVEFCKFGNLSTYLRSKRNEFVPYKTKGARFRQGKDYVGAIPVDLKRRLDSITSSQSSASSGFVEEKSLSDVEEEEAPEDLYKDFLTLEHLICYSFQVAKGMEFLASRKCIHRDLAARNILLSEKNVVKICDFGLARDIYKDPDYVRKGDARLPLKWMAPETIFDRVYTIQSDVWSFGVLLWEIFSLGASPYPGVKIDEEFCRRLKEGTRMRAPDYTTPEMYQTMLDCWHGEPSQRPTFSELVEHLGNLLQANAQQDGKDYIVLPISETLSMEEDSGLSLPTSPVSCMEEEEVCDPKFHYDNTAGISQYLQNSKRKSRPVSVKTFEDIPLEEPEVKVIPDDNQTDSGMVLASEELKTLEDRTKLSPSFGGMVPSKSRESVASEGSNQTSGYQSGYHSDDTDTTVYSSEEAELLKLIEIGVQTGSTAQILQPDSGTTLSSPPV
# Summary of the method: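 Ba/F3-KDR cells (20000 per well) in phenol red-free RPMI-1640 with 10% FBS were exposed to compound for 24 hours at 37° C, 5% CO2. Alamar Blue (resazurin) was then added for 4 hours, and fluorescence was read at ex. 540 nm/em. 590 nm.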
# [6] = test system: Ba/F3-FGFR3-transfected cells; assay: Ba/F3-FGFR3 (plus IL3) cellular proliferation assay, counterscreen with 10 ng/ml murine IL3; assay type: cell-based; conditions: plus IL3 (10 ng/ml murine IL3, counterscreen); read-out: BAF3-FGFR3 (PLUS IL3) pIC50 (converted)
# Summary of the method: as §1
# [7] = biological target: T3, Ba/F3-FGFR1-transfected cells (Homo sapiens, UniProt P11362); assay: Ba/F3-FGFR1 (minus IL3) cellular proliferation assay, Alamar Blue; assay type: cell-based
# T3 construct: BAF3-FGFR1 (MIN IL3) pIC50; other: minus IL3
# T3 sequence (P11362 whole entry, change not shown): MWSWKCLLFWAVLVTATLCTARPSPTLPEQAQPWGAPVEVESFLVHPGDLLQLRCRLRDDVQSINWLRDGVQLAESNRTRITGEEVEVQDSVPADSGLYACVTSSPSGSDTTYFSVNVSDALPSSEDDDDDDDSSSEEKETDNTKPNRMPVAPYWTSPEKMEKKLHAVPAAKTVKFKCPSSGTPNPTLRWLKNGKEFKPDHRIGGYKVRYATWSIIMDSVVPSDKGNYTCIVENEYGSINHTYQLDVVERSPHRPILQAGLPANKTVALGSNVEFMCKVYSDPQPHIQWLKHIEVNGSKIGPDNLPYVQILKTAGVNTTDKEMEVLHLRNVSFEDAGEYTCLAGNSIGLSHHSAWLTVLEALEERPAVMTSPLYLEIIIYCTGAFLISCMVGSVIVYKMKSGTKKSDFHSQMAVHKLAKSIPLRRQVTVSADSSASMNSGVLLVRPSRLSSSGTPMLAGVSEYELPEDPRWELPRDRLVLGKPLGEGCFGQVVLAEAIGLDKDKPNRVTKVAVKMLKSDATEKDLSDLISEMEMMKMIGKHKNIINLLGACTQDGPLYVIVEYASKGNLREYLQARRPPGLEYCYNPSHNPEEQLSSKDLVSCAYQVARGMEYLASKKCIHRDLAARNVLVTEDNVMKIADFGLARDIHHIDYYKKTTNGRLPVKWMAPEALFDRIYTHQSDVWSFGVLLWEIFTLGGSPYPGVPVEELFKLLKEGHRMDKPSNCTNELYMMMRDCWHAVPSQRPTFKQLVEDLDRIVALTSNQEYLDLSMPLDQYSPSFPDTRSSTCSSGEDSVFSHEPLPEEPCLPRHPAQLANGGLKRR
# Summary of the method: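 Compound is dispensed first, then FGFR1-transfected Ba/F3 cells are added at 20000 per well in phenol red-free RPMI-1640 containing 10% FBS. After 24 h at 37 °C, Alamar Blue is added for 4 h and fluorescence is measured at 540/590 nm.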
# [8] = biological target: FGFR4 (h) (Homo sapiens, UniProt P22455); assay: FGFR4 (enzymatic assay), TR-FRET; assay type: biochemical; conditions: FGFR 4 pIC50, enzymatic assay
# FGFR4 (h), sequence (P22455 22-802): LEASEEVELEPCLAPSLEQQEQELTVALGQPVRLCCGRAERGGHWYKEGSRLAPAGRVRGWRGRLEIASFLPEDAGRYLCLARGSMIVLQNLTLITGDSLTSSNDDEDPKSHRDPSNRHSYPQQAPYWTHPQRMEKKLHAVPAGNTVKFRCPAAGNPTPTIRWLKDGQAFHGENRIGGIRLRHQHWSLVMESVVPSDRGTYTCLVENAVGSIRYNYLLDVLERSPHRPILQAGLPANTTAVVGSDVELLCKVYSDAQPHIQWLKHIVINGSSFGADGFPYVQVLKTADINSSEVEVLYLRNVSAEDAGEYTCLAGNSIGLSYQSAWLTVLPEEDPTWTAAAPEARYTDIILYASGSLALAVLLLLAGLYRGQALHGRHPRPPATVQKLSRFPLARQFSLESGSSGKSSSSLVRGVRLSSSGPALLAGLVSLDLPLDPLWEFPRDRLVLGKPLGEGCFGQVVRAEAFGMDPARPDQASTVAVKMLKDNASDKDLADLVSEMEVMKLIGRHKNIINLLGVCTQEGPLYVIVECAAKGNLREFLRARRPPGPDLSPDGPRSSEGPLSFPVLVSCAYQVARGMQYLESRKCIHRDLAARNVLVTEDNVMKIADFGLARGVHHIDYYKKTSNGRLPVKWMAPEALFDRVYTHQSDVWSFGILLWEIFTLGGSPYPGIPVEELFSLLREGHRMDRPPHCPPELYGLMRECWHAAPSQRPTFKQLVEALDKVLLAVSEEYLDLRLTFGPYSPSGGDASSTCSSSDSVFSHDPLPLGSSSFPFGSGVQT
# [9] = biological target: Ba/F3-FGFR4-transfected cells (Homo sapiens, UniProt P22455); assay: Ba/F3-FGFR4 cellular proliferation assay, Alamar Blue; assay type: cell-based
# Summary of the method: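 Compounds in DMSO were dispensed before 20000 Ba/F3-FGFR4-transfected cells per well were added in phenol red free RPMI-1640 with 10% FBS, 2 mM L-Glutamine. After 24 hours at 37° C and 5% CO2, Alamar Blue was added for 4 hours and fluorescence read (ex. 540 nm, em. 590 nm).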
# T1 sequence (P22607 whole entry, change not shown): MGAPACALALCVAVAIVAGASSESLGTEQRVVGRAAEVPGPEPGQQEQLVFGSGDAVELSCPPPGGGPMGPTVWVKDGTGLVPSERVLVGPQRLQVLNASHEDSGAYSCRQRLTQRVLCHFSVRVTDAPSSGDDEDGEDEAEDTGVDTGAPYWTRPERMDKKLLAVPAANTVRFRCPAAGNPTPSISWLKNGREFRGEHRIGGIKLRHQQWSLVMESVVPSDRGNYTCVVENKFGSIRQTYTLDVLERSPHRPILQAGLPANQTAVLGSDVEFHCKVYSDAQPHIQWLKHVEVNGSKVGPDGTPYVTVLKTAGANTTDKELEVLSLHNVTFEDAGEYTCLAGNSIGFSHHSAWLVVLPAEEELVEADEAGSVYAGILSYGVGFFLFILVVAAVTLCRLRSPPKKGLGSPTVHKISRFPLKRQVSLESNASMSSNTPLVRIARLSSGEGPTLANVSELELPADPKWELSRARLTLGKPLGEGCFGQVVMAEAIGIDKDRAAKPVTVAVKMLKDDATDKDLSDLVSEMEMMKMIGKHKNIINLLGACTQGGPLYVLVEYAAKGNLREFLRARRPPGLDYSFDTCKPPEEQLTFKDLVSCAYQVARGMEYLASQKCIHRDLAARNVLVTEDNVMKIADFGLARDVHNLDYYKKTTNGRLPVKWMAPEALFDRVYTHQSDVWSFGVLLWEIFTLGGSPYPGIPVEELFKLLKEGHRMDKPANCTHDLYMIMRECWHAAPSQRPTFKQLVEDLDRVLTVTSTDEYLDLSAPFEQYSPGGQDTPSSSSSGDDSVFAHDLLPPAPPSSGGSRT
SMILES,IC50 [1] [nM],BAF3-FGFR3 (MIN IL3) pIC50 [2],IC50 [3] [nM],IC50 [4] [nM],BAF3-KDR (MIN IL3) pIC50 [5],IC50 [6] [nM],BAF3-FGFR1 (MIN IL3) pIC50 [7],IC50 [8] [nM],BAF3-FGFR4 pIC50 [9]
COc1cc(OC)c(F)c(N(CCN(C2COC2)C2COC2)c2ccc3ncc(-c4cnn(C)c4)nc3n2)c1 [Compound 222],2.24,~7.19,40.7,> 10000,5.68,> 10000,7.12,15.5,6.55
COc1cc(O)c(F)c(N(Cc2ncc[nH]2)c2ccc3ncc(-c4cnn(C)c4)nc3n2)c1 [Compound 96],0.741,~8.09,11.5,> 10000,5.89,> 10000,8.08,1.78,7.16
COc1cc(OC)c(F)c(N(Cc2ncc[nH]2)c2ccc3ncc(-c4ccccc4)nc3n2)c1 [Compound 200],0.537,~8.13,~9.55,> 10000,5.99,> 10000,8.37,1.48,7.33
COc1cc(OC)c(F)c(N(Cc2n[nH]c(=O)o2)c2ccc3ncc(-c4cnn(C)c4)nc3n2)c1 [Compound 284],1.58,6.42,63.1,> 10000,<5,> 10000,6.37,5.5,6.01
COc1cc(OC)cc(N(Cc2ncc[nH]2)c2ccc3ncc(-c4ccn(C)c4)nc3n2)c1 [Compound 198],0.309,~8.15,4.57,> 10000,6.68,> 10000,8.48,0.661,8.05
COc1cc(OC)cc(N(CCN2CCOCC2)c2ccc3ncc(-c4cnn(C)c4)nc3n2)c1 [Compound 146],6.76,~7.14,41.7,> 10000,5.28,> 10000,6.87,17.8,~6.58
COc1cc(/N=c2\ccc3ncc(-c4cnn(C)c4)nc3n2Cc2cc(C)no2)c(F)c(OC)c1 [Compound 184],0.977,~8.15,4.79,> 10000,6.71,> 10000,~8.34,1.17,8.03
COc1cc(OC)c(F)c(N(CC2CCC(=O)N2C)c2ccc3ncc(-c4cnn(C)c4)nc3n2)c1 (stereo not drawn) [Compound 159],8.51,6.30,83.2,> 10000,5.17,> 10000,6.65,20.4,6.20
"COc1cc(/N=c2\ccc3ncc(-c4cnn(C)c4)nc3n2CC2CCC(=O)N2CCO)c(F)c(OC)c1 (single isomer, unassigned) [Compound 219]",0.813,7.66,7.94,> 10000,6.38,> 10000,7.77,1.91,6.78
COc1cc(OC)cc(N(Cc2nc(OC)cc(OC)n2)c2ccc3ncc(-c4cnn(C)c4)nc3n2)c1 [Compound 174],~39.8,5.57,89.1,> 10000,<5,> 10000,5.68,77.6,5.45
CCOCc1c[nH]c(CN(c2ccc3ncc(-c4cnn(C)c4)nc3n2)c2cc(OC)cc(OC)c2F)n1 [Compound 206],1.38,~8.12,27.5,> 10000,5.84,> 10000,7.89,2.95,7.34
COc1cc(OC)c(F)c(N(Cc2ncc[nH]2)c2ccc3ncc(-c4ccncc4)nc3n2)c1 [Compound 211],1,~8.11,36.3,> 10000,5.82,> 10000,8.08,2.29,7.29
COc1cc(OC)c(F)c(N(CCN2CCCC2=O)c2ccc3ncc(-c4cnn(C)c4)nc3n2)c1 [Compound 157],10.5,~6.66,46.8,> 10000,5.30,> 10000,6.17,26.3,6.08
CCn1cc(-c2cnc3ccc(N(Cc4ncc[nH]4)c4cc(OC)cc(OC)c4F)nc3n2)cn1 [Compound 223],0.55,~8.58,7.08,> 10000,6.81,> 10000,8.85,1.29,7.95
COc1cc(OC)cc(N(Cc2ncc[nH]2)c2ccc3ncc(-c4ccccc4)nc3n2)c1 [Compound 152],1.07,8.08,15.1,> 10000,5.56,> 10000,7.96,1.41,7.46
COc1cc(OC)cc(N(CCN2CCCC2=O)c2ccc3ncc(-c4cnn(C)c4)nc3n2)c1 [Compound 151],38.9,5.72,126,> 10000,<5,> 10000,5.56,91.2,5.49
COc1cc(/N=c2\ccc3ncc(-c4cnn(C)c4)nc3n2CC2CCC(=O)N2C)c(F)c(OC)c1 (stereo not drawn) [Compound 158],1.74,7.20,6.61,> 10000,6.16,> 10000,7.18,2.51,6.78
COc1cc(OC)c(F)c(N(Cc2cc(C)on2)c2ccc3ncc(-c4cnn(C)c4)nc3n2)c1 [Compound 180],1.1,7.36,9.55,> 10000,5.58,> 10000,7.43,1.66,7.10
COc1cc(OC)c(F)c(N(Cc2ncc[nH]2)c2ccc3ncc(-c4cnn(CC(C)(C)O)c4)nc3n2)c1 [Compound 240],0.912,~8.52,15.5,> 10000,6.89,> 10000,8.57,1.91,7.87
COc1cc(OC)c(F)c(N(Cc2cc(C)no2)c2ccc3ncc(-c4cnn(C)c4)nc3n2)c1 [Compound 185],0.851,7.64,17.8,> 10000,5.51,> 10000,7.59,0.977,7.39

# From US9309242B2, “Substituted pyrido[2,3-b]pyrazines as FGFR kinase inhibitors” (priority 2011, dated 2016)
